The text below walks through data of patent publication US8440837B2, “2-substituted-ethynylthiazole derivatives and uses of same” (H. Lundbeck A/S, priority 2009, dated 2013).

One assay has as its target mGluR5 (Homo sapiens, UniProt P41594). The assay can be described thus: [3H] MPEP radioligand filtration binding assay on membrane homogenates. As to conditions: 5 nM [3H] MPEP, Cheng-Prusoff from IC50. How it is done:
Binding assays were performed as described in [J. A. O'Brien et al. Mol. Pharmacol., 2003, 64, 731-740] with slight modifications. Briefly, after thawing, the membrane homogenates were resuspended in 50 mM Tris-HCl, 0.9% NaCl binding buffer at pH 7.4 to a final assay concentration of 20 μg protein/well for [^3H] […] ([^3H] MPEP) (American Radiolabeled Chemicals, Inc., St. Louis, Mo.) filtration binding. Incubations included 5 nM [^3H] MPEP, membranes and either buffer or varying concentrations of compound. Samples were incubated for 60 min at room temperature with shaking. Non-specific binding was defined with 10 μM MPEP. After incubation, samples were filtered over a GF/C filter (presoaked in 0.25% polyethyleneimine (PEI)) and then washed 4 times using a Tomtec® Harvester 96® Mach III cell harvester (Tomtec, Hamden, Conn.) with 0.5 mL ice-cold 50 mM Tris-HCl (pH 7.4).
IC50 values were derived from the inhibition curve and Ki values were calculated according to the Cheng and Prusoff equation of Ki=IC50/(1+[L]/Kd) described in [Y. Cheng and W. H. Prusoff Biochem. Pharmacol. 1973, 22, 3099-3108] where [L] is the concentration of radioligand and Kd is its dissociation constant at the receptor, derived from the saturation isotherm.

Assay [1] addresses human metabotropic glutamate receptor 5 (hmGluR5) (UniProt P31424). As to the kind of experiment: Calcium mobilization (FLIPR) assay, positive allosteric modulation of the EC20 glutamate response. Type of assay: cell-based. As to conditions: HEK 293 cells; for maximum modulation (Emax): EC20 glutamate response; for EC50: increase in EC20 glutamate response. How it is done: The cDNA for human metabotropic glutamate receptor 5 (hmGluR5) was a generous gift from S. Nakanishi (Kyoto University, Kyoto, Japan). The […] was stably expressed in a HEK 293 cell line and grown in Dulbecco's Modified Eagle Medium (DMEM) (Invitrogen, Carlsbad, Calif.) with supplements (10% bovine calf serum, 4 mM glutamine, 100 units/mL penicillin, 100 μg/mL streptomycin and […]) at 37° C., 5% CO2. Twenty-four hours prior to assay, cells were seeded into 384-well black wall microtiter plates coated with poly-D-lysine. Just prior to assay, media was aspirated and cells dye-loaded (25 μL/well) with 3 μM Fluo-4/0.01% pluronic acid in assay buffer (Hank's Balanced Saline Solution (HBSS)): 150 mM NaCl, 5 mM KCl, 1 mM CaCl2, 1 mM MgCl2, plus 20 mM N-2-Hydroxyethylpiperazine-N′-2-ethanesulfonic acid (HEPES), pH 7.4, 0.1% bovine serum albumin (BSA) and 2.5 mM probenicid) for 1 hour in 5% CO2 at 37° C. After excess dye was discarded, cells were washed in assay buffer and layered with a final volume equal to 30 μL/well. Basal fluorescence is monitored in a fluorometric imaging plate reader (FLIPR) (Molecular Devices, Sunnyvale, Calif.) with an excitation wavelength of 488 nm and an emission range of 500 to 560 nm. Laser excitation energy was adjusted so that basal fluorescence readings were approximately 10,000 relative fluorescent units. Cells were stimulated with an EC20 or an EC80 concentration of glutamate in the presence of a compound to be tested, both diluted in assay buffer, and relative fluorescent units were measured at defined intervals (exposure=0.6 sec) over a 3 min period at room temperature. Basal readings derived from negative controls were subtracted from all samples. Maximum change in fluorescence was calculated for each well. Concentration-response curves derived from the maximum change in fluorescence were analyzed by nonlinear regression (Hill equation).
A silent allosteric modulator (SAM) can be identified by using a combination of both the calcium mobilization assay data and the radioligand binding data. As used herein, the term “silent allosteric modulator” refers to a ligand that binds to an allosteric site of the receptor but has no measurable intrinsic efficacy.
On the technique in general: Calcium assays in cells follow changes in intracellular calcium, usually with a dye or a luminescent sensor.

Assay [2] deals with working memory processes (cognition). The assay can be described thus: Novel object recognition (NOR) test. The class given is in vivo, rats. How it is done: Cognition can be assessed by the novel object recognition (NOR). NOR can be used to access cognitive performance with respect to processes of working memory, such as recognition, interpretation and appropriate response. The NOR test was performed using the compound of Example 1 and reference compound in vehicle of 20% β-cyclodextrin (βCD) in dH2O. Example 1 (at 3.0 mg/kg, ip in rats) has activity as measured in the NOR test. Along with Example 1, Examples 2, 12 and 35 (at 1.0 mg/kg, po in rats) have activity as measured in the NOR test.

For orientation: Ki means the equilibrium dissociation constant of an inhibitor or competing ligand from its target. High values mean weaker binding, low ones tighter binding. Usually EC50 stands for the concentration giving half of the maximal effect.

mGluR5, sequence (P41594 21-1212): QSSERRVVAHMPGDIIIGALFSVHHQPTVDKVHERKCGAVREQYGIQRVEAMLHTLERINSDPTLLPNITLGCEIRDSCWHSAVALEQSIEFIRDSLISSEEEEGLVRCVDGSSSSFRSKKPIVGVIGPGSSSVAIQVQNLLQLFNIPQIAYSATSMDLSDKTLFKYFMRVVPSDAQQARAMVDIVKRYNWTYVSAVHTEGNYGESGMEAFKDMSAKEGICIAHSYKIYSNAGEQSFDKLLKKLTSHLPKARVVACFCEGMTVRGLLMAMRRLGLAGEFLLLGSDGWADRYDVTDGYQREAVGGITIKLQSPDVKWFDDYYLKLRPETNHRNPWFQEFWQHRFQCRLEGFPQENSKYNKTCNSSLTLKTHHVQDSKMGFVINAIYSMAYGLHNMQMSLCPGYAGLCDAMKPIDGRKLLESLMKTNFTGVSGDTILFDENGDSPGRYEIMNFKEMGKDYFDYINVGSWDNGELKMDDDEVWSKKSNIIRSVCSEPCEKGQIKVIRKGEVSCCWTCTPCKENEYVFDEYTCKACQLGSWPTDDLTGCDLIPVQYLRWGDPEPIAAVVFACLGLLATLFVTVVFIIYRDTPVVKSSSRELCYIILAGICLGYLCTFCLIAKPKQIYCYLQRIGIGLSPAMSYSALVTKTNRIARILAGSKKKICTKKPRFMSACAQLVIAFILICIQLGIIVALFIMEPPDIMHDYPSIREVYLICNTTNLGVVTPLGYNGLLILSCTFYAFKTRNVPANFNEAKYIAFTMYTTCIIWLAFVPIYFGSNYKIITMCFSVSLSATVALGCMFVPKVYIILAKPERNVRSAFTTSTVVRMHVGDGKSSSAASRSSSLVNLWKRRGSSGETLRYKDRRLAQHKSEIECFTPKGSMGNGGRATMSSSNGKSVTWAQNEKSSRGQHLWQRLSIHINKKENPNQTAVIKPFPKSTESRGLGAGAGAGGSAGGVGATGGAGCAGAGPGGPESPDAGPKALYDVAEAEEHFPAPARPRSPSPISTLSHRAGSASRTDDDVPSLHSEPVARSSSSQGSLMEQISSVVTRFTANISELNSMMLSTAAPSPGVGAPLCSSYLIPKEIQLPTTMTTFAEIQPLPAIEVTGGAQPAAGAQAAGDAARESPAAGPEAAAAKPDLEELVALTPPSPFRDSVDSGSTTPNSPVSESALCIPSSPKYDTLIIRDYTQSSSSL

Turning to `O=C(c1cnc(C#Cc2ccccc2)s1)N1CCCCC1` [Example 1, (2-Phenylethynyl-thiazol-5-yl)-piperidin-1-yl-methanone], the Ki on mGluR5 amounted to 139 nM. Besides, in assay [1], the “maximum modulation (Emax)” value came out at 210%. Also, the EC50 in assay [1] is 3.6 nM. Besides, the “activity in the NOR test” value in assay [2] (1.0 mg/kg, po in rats, FIG. 2) was “have activity”; in assay [2] (3.0 mg/kg, ip in rats, FIG. 1), “has activity”.
With `O=C(c1cnc(C#Cc2ccccc2)s1)N1CCC(F)CC1` [Example 2, (4-Fluoro-piperidin-1-yl)-(2-phenylethynyl-thiazol-5-yl)-methanone], affinity on mGluR5 was put at a Ki of 192 nM. Besides, in assay [1], the “maximum modulation (Emax)” value is listed as 130% and the EC50 is 7.9 nM. Also, the “activity in the NOR test” value in assay [2] (1.0 mg/kg, po in rats, FIG. 2) is “have activity”.
With `O=C(c1cnc(C#Cc2cccc(Cl)c2)s1)N1CCCCC1` [Example 35, [2-(3-Chloro-phenylethynyl)-thiazol-5-yl]-piperidin-1-yl-methanone], in assay [2] (1.0 mg/kg, po in rats, FIG. 2), the “activity in the NOR test” value is “have activity”.
At mGluR5, `O=C(c1cnc(C#Cc2ccccc2)s1)N1CCC(O)CC1` [Example 12, (4-Hydroxy-piperidin-1-yl)-(2-phenylethynyl-thiazol-5-yl)-methanone] yielded a Ki of 7170 nM. For the same compound, in assay [1], the “maximum modulation (Emax)” value was found to be 170% and the EC50 was found to be 280 nM. Moreover, the “activity in the NOR test” value in assay [2] (1.0 mg/kg, po in rats, FIG. 2) was “have activity”.
For `CC1CCN(C(=O)c2cnc(C#Cc3ccccc3)s2)CC1` [Example 11, (4-Methyl-piperidin-1-yl)-(2-phenylethynyl-thiazol-5-yl)-methanone], at mGluR5, the affinity, expressed as Ki, was 135 nM. For the same compound, in assay [1], the “maximum modulation (Emax)” value was 150% and the EC50 came out at 3.5 nM.
At mGluR5, `O=C(c1cnc(C#Cc2ccccc2)s1)N1CCOCC1` [Example 7, Morpholin-4-yl-(2-phenylethynyl-thiazol-5-yl)-methanone] showed a Ki of 860 nM.
Still for that read-out and setting: the result for `O=C(c1cnc(C#Cc2cccc(F)c2)s1)N1CCOCC1` [Example 22, [2-(3-Fluoro-phenylethynyl)-thiazol-5-yl]-morpholin-4-yl-methanone] reads 300 nM.
